# Patent US20160139154A1, “METHODS FOR DETERMINING TOTAL BODY SKELETAL MUSCLE MASS” (THE REGENTS OF THE UNIVERSITY OF CALIFORNIA, priority 2013, published 2016)
# Assays:
# [1] = Pharmacokinetics of D3-creatine in plasma after a single oral tracer dose; format: in vivo, human; details: healthy subjects
# Experimental: Subjects were housed on the in-patient unit for the full 5 day study. Subjects were admitted on Day-1, for baseline evaluation and acclimation.
# (§1) In the older subjects, sampling was extended to 72 hr (24, 36, 48, and 72 hr). Urine was collected continuously beginning at baseline, day −1, through day 5 of the study in timed intervals. On Day −1, subjects entered the clinic prior to noon, and timed urine collections began at 12:00 PM with 12:00 PM being time 0 (0-4, 4-8, 8-12, 12-20 h), and completed at 8:00 AM the next day, Day 1.
# (§2) Total body creatine pool size and muscle mass were calculated from D3-creatinine enrichment in urine. Total body muscle mass was measured by MRI (serial cross sections), and total lean body mass (LBM) and appendicular lean mass (ALM) were measured by DXA during the subjects' stay on the inpatient unit.
# [2] = Urinary excretion and renal clearance of the D3-creatine tracer dose; format: in vivo, human
# Experimental: as §1, §2
# The data were analyzed in SAS v9.2 (SAS Institute, Cary, N.C.) and graphs were produced in either SAS or TSCG. […] There were no adjustments for multiplicity.
# [3] = in vivo, po
# Experimental: Enrichment of D3-creatinine in urine to total creatinine in urine was determined for each urine collection interval. Achievement of steady-state enrichment was determined by a combination of visual inspection and linear regression. […] Linear regression of the enrichment ratio on time (midpoint of the urine collection interval) was performed for each subject separately. […] The earliest time point included in the final regression was defined as the time to achievement of steady-state.
"cleared from plasma ([1]; single oral tracer dose 30-100 mg, within 24 h) [%]","cleared from plasma by 72 h ([1]; single oral tracer dose, by 72 h)","% of D3-creatine recovered in urine over 120 h ([2]; range across subjects, single oral dose 30-100 mg) [%]","renal clearance ([2]; human, in vivo) [mL/min]","renal clearance as % of the dose ([2]; human, in vivo)",time to achievement of steady-state enrichment in urine [3] [h],Compound
~80,essentially cleared,0.1 to 34,,,,[2H]C([2H])([2H])N(CC(=O)O)C(=N)N [D3-creatine]
,,,0.26 to 56,0.1% to 34,30.7,D3-creatinine
